# Measured values: patent publication US10087188B2, “Benzamide imidazopyrazine Btk inhibitors” (MERCK SHARP & DOHME CORP., priority 2014, dated 2018)
# pIC50: −log10 of the molar value.
# How the values were obtained:
# [1] = target: BTK enzyme (recombinant full-length BTK, hBTK) (Homo sapiens (Human), UniProt Q06187); test: Btk enzyme activity assay, LANCE TR-FRET; assay type: biochemical; details: 50 pM hBTK, 2 μM biotin-A5-peptide, 25 μM ATP; 60 minute compound & enzyme incubation; read-out: BTK binding IC50
# Procedure: Btk Enzyme Activity Assay Methods
# BTK enzymatic activity was determined with the LANCE (Lanthanide Chelate Excite) TR-FRET (Time-resolved fluorescence resonance energy transfer) assay. […] After 60 minutes incubation with detection reagents, reaction plates were read on a PerkinElmer EnVision plate reader using standard TR-FRET protocol.
# [2] = test system: HeLa cells; test: [3H] Adenosine uptake assay; assay type: cell-based; details: Homo sapiens, HeLa, accumulation of tritiated adenosine into HeLa cells; compound concentration range 10 μM to 0.032 nM; read-out: ADU inhibition IC50 (adenosine uptake inhibition potency)
# How it was run: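 HeLa cells in HBSS + 5% FBS preincubated 30 min at ambient temperature with compound (0.25% DMSO), then [3H]adenosine (500 nM stock) added for 60 min. Uptake measured by scintillation proximity counting; IC50 from 4-parameter fit of counts vs log concentration.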
# BTK enzyme (recombinant full-length BTK, hBTK), sequence (Q06187 whole entry): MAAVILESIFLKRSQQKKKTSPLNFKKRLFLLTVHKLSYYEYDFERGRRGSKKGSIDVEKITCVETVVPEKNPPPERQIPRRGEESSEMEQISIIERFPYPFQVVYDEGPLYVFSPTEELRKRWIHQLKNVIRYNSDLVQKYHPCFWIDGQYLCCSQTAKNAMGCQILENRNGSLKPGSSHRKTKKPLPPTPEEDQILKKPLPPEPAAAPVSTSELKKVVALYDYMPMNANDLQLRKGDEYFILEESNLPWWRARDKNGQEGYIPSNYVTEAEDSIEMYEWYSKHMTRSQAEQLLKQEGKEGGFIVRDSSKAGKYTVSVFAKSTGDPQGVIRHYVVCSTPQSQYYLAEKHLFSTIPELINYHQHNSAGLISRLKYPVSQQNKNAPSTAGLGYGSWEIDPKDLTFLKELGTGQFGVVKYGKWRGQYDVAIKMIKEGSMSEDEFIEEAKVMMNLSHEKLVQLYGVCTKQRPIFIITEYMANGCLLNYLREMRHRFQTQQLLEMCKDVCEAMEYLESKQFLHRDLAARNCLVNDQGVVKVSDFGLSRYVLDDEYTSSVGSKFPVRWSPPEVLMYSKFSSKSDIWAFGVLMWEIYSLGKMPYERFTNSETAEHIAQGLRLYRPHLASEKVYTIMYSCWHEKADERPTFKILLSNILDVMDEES
SMILES,pIC50 [1],pIC50 [2]
"CCOc1cc(C(=O)Nc2cc(C(F)(F)F)ccn2)ccc1-c1nc([C@@H]2CC[C@@](C(=O)O)(C(C)C)C2)n2ccnc(N)c12 [Example 60, (1S,3R)-3-[8-amino-1-(2-ethoxy-4-{[4-(trifluoromethyl)pyridin-2-yl]carbamoyl}phenyl)imidazo[1,5-a]pyrazin-3-yl]-1-(1-methylethyl) cyclopentane-carboxylic acid]",8.12,5.00
"CCOc1cc(C(=O)Nc2cc(C(F)(F)F)ccn2)ccc1-c1nc([C@@H]2CC[C@](C(=O)O)(C(C)C)C2)n2ccnc(N)c12 [Example 61, (1R,3R)-3-[8-amino-1-(2-ethoxy-4-{[4-(trifluoromethyl)pyridin-2-yl]carbamoyl}phenyl)imidazo[1,5-a]pyrazin-3-yl]-1-(1-methylethyl) cyclopentane-carboxylic acid]",8.62,5.00
"CCOc1cc(C(=O)Nc2cc(C(F)(F)F)ccn2)ccc1-c1nc([C@H]2CC[C@](C(=O)O)(C(C)C)C2)n2ccnc(N)c12 [Example 62, (1R,3S)-3-[8-amino-1-(2-ethoxy-4-{[4-(trifluoromethyl)pyridin-2-yl]carbamoyl}phenyl)imidazo[1,5-a]pyrazin-3-yl]-1-(1-methylethyl) cyclopentane-carboxylic acid]",7.91,5.00
"CCOc1cc(C(=O)Nc2cc(C(F)(F)F)ccn2)ccc1-c1nc([C@H]2CC[C@@](C(=O)O)(C(C)C)C2)n2ccnc(N)c12 [Example 63, (1S,3S)-3-[8-amino-1-(2-ethoxy-4-{[4-(trifluoromethyl)pyridin-2-yl]carbamoyl}phenyl)imidazo[1,5-a]pyrazin-3-yl]-1-(1-methylethyl) cyclopentane-carboxylic acid]",9.24,5.07
"CCOc1cc(C(=O)Nc2cc(C(F)(F)F)ccn2)ccc1-c1nc(C23CCC(C(=O)O)(CC2=O)C(=O)C3)n2ccnc(N)c12 (stereo not drawn) [Example 64, 4-[8-amino-1-(2-ethoxy-4-{[4-(trifluoromethyl)pyridin-2-yl]carbamoyl}phenyl)imidazo[1,5-a]pyrazin-3-yl]-2,5-dioxobicyclo[2.2.2] octane-1-carboxylic acid]",8.59,5.00
"Nc1nccn2c(C34CCC(C(=O)O)(CC3)C4)nc(-c3ccc(C(=O)Nc4cc(C(F)(F)F)ccn4)cc3)c12 [Example 65, 4-[8-amino-1-(4-{[4-(trifluoromethyl)pyridin-2-yl]carbamoyl}phenyl)imidazo[1,5-a]pyrazin-3-yl]bicyclo[2.2.1] heptane-1-carboxylic acid]",9.22,5.22
"CCOc1cc(C(=O)Nc2cc(C(F)(F)F)ccn2)ccc1-c1nc(C23CCC(C(=O)O)(CC2(F)F)C(F)(F)C3)n2ccnc(N)c12 (stereo not drawn) [Example 66, 4-[8-amino-1-(2-ethoxy-4-{[4-(trifluoromethyl)pyridin-2-yl]carbamoyl}phenyl)imidazo[1,5-a]pyrazin-3-yl]-2,2,5,5-tetrafluorobicyclo [2.2.2]octane-1-carboxylic acid]",9.33,5.00
"CCOc1cc(C(=O)Nc2cc(C(F)(F)F)ccn2)ccc1-c1nc(C23CCCC(C(=O)O)(CC2)CC3)n2ccnc(N)c12 [Example 67, 5-[8-amino-1-(2-ethoxy-4-{[4-(trifluoromethyl)pyridin-2-yl]carbamoyl}phenyl)imidazo[1,5-a]pyrazin-3-yl]bicyclo[3.2.2] nonane-1-carboxylic acid]",9.41,5.31
"Nc1nccn2c(C34CCCC(C(=O)O)(CC3)CC4)nc(-c3ccc(C(=O)Nc4cc(C(F)(F)F)ccn4)cc3)c12 [Example 68, 5-[8-amino-1-(4-{[4-(trifluoromethyl)pyridin-2-yl]carbamoyl}phenyl)imidazo[1,5-a]pyrazin-3-yl]bicyclo[3.2.2] nonane-1-carboxylic acid]",9.64,6.56
